The values below come from ChEMBL document CHEMBL1131496, “Excitatory amino acid receptor ligands: resolution, absolute stereochemistry, and enantiopharmacology of 2-amino-3-(4-butyl-3-hydroxyisoxazol-5-yl)propionic acid” (J Med Chem, 1998).

A short description of experiment [1]: In vitro binding affinity against Metabotropic glutamate receptor using [3H](S)-glutamic acid. Further details: species or system Mus musculus.
The subject of experiment [2] is Mus musculus. The experiment is described as follows: In vivo convulsant activity were tested in mice after subcutaneous administration. In kind it is functional. The following applies: sc.
The species entered for another experiment is Rattus norvegicus. In words: Compound was tested for electrophysiological experiments using rat cortical wedge preparation. Format: functional.
Experiment [3] addresses Glutamate receptor ionotropic, AMPA (Mus musculus, UniProt P23818+P23819+Q9Z2W8+Q9Z2W9).
Description: Compound was tested for in vitro binding affinity against Ionotropic glutamate receptor AMPA using [3H]AMPA ligand
Experiment [4] relates to Mus musculus. In words: In vivo convulsant activity were tested in mice after intravenous administration.

Where only a bound is given, the exact number is not on record here.

As usually defined, the IC50 is the point on the concentration scale where inhibition reaches its midpoint. Broadly, the ED50 is the midpoint of the dose-response relation. High values mean a need for a large dose, low ones an effect at a small dose. As a reminder, the EC50 is the midpoint of the concentration-response curve. The low end stands for a more potent agent, the high end for a less potent agent. As to `CCCCc1c(O)noc1CC(N)C(=O)O` (stereo unspecified), the IC50 in experiment [1] turned out to be 0.63 µM; in experiment [3], 1.8 µM. Further, the ED50 in the experiment on Mus musculus [2] was found to be 110 µmol/kg; in the experiment with Mus musculus [4] it was 94 µmol/kg. The EC50 in the experiment listed under Rattus norvegicus stood at 37 µM.

Regarding `CCCCc1c(O)noc1C[C@@H](N)C(=O)O`, the IC50 was 0.57 µM in experiment [1] and > 1000 µM in experiment [3]. Also, the EC50 in the experiment filed under Rattus norvegicus was > 1000 µM. The ED50 with Mus musculus [4] is > 350 µmol/kg.

In the case of `CCCCc1c(O)noc1C[C@H](N)C(=O)O`, the IC50 in experiment [1] is 0.64 µM; in experiment [3], 0.48 µM. For the same compound, a half-maximal effect in the experiment filed under Rattus norvegicus (EC50) was put at 17 µM. In the experiment on Mus musculus [4], this compound returned an ED50 of 44 µmol/kg.

In the case of `N[C@@H](Cc1onc(O)c1Br)C(=O)O`, the IC50 was determined as 0.22 µM in experiment [1] and 0.34 µM in experiment [3]. Moreover, the EC50 in the experiment listed under Rattus norvegicus came out at 21 µM.

On to `N[C@H](Cc1onc(O)c1Br)C(=O)O`, for which the IC50 in experiment [1] came to 0.15 µM; in experiment [3] it was 32 µM. For the same compound, the EC50 in the experiment listed under Rattus norvegicus was > 1000 µM.

As for `NC(Cc1onc(O)c1Br)C(=O)O` (stereo unspecified), the IC50 turned out to be 0.2 µM in experiment [1] and 0.6 µM in experiment [3]. Moreover, a half-maximal response in the experiment listed under Rattus norvegicus (EC50) required 23 µM.

`Cc1onc(O)c1CC(N)C(=O)O` [(R,S)-AMPA]: the IC50 in experiment [1] was > 100 µM. The compound also yielded an ED50 with Mus musculus [4] of 55 µmol/kg.

As to `N[C@@H](Cn1oc(=O)[nH]c1=O)C(=O)O` [QUISQUALATE], the IC50 in experiment [1] is 0.025 µM. In the experiment listed under Rattus norvegicus, this compound registered an EC50 of 7.3 µM.
